Reference: PubChem BioAssay (NCI)
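GI50 marks 50% less growth. TGI: concentration producing complete growth inhibition.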

Legend:
Assay in all cases: NCI tumour cell line growth inhibition, 384-well format
A549 NSCLC = test system: A549 NSCLC
CCRF-CEM leukemia = test system: CCRF-CEM leukemia
SK-MEL-5 melanoma = test system: SK-MEL-5 melanoma
T-47D breast = test system: T-47D breast
OVCAR-3 ovarian = test system: OVCAR-3 ovarian
MCF7 breast = test system: MCF7 breast
EKVX NSCLC = test system: EKVX NSCLC
CAKI-1 renal = test system: CAKI-1 renal
M14 melanoma = test system: M14 melanoma
OVCAR-4 ovarian = test system: OVCAR-4 ovarian
NCI/ADR-RES ovarian = test system: NCI/ADR-RES ovarian
SF-539 CNS = test system: SF-539 CNS
UO-31 renal = test system: UO-31 renal
IGROV1 ovarian = test system: IGROV1 ovarian
UACC-62 melanoma = test system: UACC-62 melanoma
MDA-MB-468 breast = test system: MDA-MB-468 breast
MALME-3M melanoma = test system: MALME-3M melanoma
SW-620 colon = test system: SW-620 colon
LOX IMVI melanoma = test system: LOX IMVI melanoma
SK-MEL-2 melanoma = test system: SK-MEL-2 melanoma
NCI-H23 lung = test system: NCI-H23 lung
DU-145 prostate = test system: DU-145 prostate
SF-295 CNS = test system: SF-295 CNS
SK-OV-3 ovarian = test system: SK-OV-3 ovarian
SN12C renal = test system: SN12C renal
KM12 colon = test system: KM12 colon
SR leukemia = test system: SR leukemia
MDA-MB-231 breast = test system: MDA-MB-231 breast
BT-549 breast = test system: BT-549 breast
A498 renal = test system: A498 renal
MDA-MB-435 melanoma = test system: MDA-MB-435 melanoma
HL-60(TB) leukemia = test system: HL-60(TB) leukemia
K-562 leukemia = test system: K-562 leukemia
NCI-H522 lung = test system: NCI-H522 lung
OVCAR-5 ovarian = test system: OVCAR-5 ovarian
COLO 205 colon = test system: COLO 205 colon
NCI-H226 lung = test system: NCI-H226 lung
NCI-H460 NSCLC = test system: NCI-H460 NSCLC
SNB-19 CNS = test system: SNB-19 CNS
MOLT-4 leukemia = test system: MOLT-4 leukemia
RPMI-8226 leukemia = test system: RPMI-8226 leukemia
U251 glioblastoma = test system: U251 glioblastoma
HCT-15 colon = test system: HCT-15 colon
HOP-92 NSCLC = test system: HOP-92 NSCLC
HT29 colon = test system: HT29 colon
NCI-H322M lung = test system: NCI-H322M lung
HS 578T breast = test system: HS 578T breast

Question: What does the source list for `O=C(Nc1cnn2ccc(N3CCC[C@@H]3c3cc(F)ccc3F)nc12)N1CC[C@H](O)C1`?
Answer: GI50 (A549 NSCLC): > 100 µM; TGI (A549 NSCLC): > 100 µM; GI50 (CCRF-CEM leukemia): > 100 µM; TGI (CCRF-CEM leukemia): > 100 µM; GI50 (SK-MEL-5 melanoma): > 100 µM; TGI (SK-MEL-5 melanoma): > 100 µM; GI50 (T-47D breast): > 100 µM; TGI (T-47D breast): > 100 µM; GI50 (OVCAR-3 ovarian): > 100 µM; TGI (OVCAR-3 ovarian): > 100 µM; GI50 (MCF7 breast): > 100 µM; TGI (MCF7 breast): > 100 µM; GI50 (EKVX NSCLC): > 100 µM; TGI (EKVX NSCLC): > 100 µM; GI50 (CAKI-1 renal): > 100 µM; TGI (CAKI-1 renal): > 100 µM; GI50 (M14 melanoma): > 100 µM; TGI (M14 melanoma): > 100 µM; GI50 (OVCAR-4 ovarian): > 100 µM; TGI (OVCAR-4 ovarian): > 100 µM; GI50 (NCI/ADR-RES ovarian): > 100 µM; TGI (NCI/ADR-RES ovarian): > 100 µM; GI50 (SF-539 CNS): > 100 µM; TGI (SF-539 CNS): > 100 µM; GI50 (UO-31 renal): > 100 µM; TGI (UO-31 renal): > 100 µM; GI50 (IGROV1 ovarian): > 100 µM; TGI (IGROV1 ovarian): > 100 µM; GI50 (UACC-62 melanoma): > 100 µM; TGI (UACC-62 melanoma): > 100 µM; GI50 (MDA-MB-468 breast): > 100 µM; TGI (MDA-MB-468 breast): > 100 µM; GI50 (MALME-3M melanoma): > 100 µM; TGI (MALME-3M melanoma): > 100 µM; GI50 (SW-620 colon): > 100 µM; TGI (SW-620 colon): > 100 µM; GI50 (LOX IMVI melanoma): > 100 µM; TGI (LOX IMVI melanoma): > 100 µM; GI50 (SK-MEL-2 melanoma): > 100 µM; TGI (SK-MEL-2 melanoma): > 100 µM; GI50 (NCI-H23 lung): > 100 µM; TGI (NCI-H23 lung): > 100 µM; GI50 (DU-145 prostate): > 100 µM; TGI (DU-145 prostate): > 100 µM; GI50 (SF-295 CNS): > 100 µM; TGI (SF-295 CNS): > 100 µM; GI50 (SK-OV-3 ovarian): > 100 µM; TGI (SK-OV-3 ovarian): > 100 µM; GI50 (SN12C renal): > 100 µM; TGI (SN12C renal): > 100 µM; GI50 (KM12 colon): 18.1 nM; TGI (KM12 colon): > 100 µM; GI50 (SR leukemia): > 78.9 µM; TGI (SR leukemia): > 100 µM; GI50 (MDA-MB-231 breast): > 100 µM; TGI (MDA-MB-231 breast): > 100 µM; GI50 (BT-549 breast): > 100 µM; TGI (BT-549 breast): > 100 µM; GI50 (A498 renal): > 100 µM; TGI (A498 renal): > 100 µM; GI50 (MDA-MB-435 melanoma): > 100 µM; TGI (MDA-MB-435 melanoma): > 100 µM; GI50 (HL-60(TB) leukemia): > 100 µM; TGI (HL-60(TB) leukemia): > 100 µM; GI50 (K-562 leukemia): > 100 µM; TGI (K-562 leukemia): > 100 µM; GI50 (NCI-H522 lung): > 100 µM; TGI (NCI-H522 lung): > 100 µM; GI50 (OVCAR-5 ovarian): > 100 µM; TGI (OVCAR-5 ovarian): > 100 µM; GI50 (COLO 205 colon): > 100 µM; TGI (COLO 205 colon): > 100 µM; GI50 (NCI-H226 lung): > 100 µM; TGI (NCI-H226 lung): > 100 µM; GI50 (NCI-H460 NSCLC): > 100 µM; TGI (NCI-H460 NSCLC): > 100 µM; GI50 (SNB-19 CNS): > 100 µM; TGI (SNB-19 CNS): > 100 µM; GI50 (MOLT-4 leukemia): 77.1 µM; TGI (MOLT-4 leukemia): > 100 µM; GI50 (RPMI-8226 leukemia): > 100 µM; TGI (RPMI-8226 leukemia): > 100 µM; GI50 (U251 glioblastoma): > 100 µM; TGI (U251 glioblastoma): > 100 µM; GI50 (HCT-15 colon): > 100 µM; TGI (HCT-15 colon): > 100 µM; GI50 (HOP-92 NSCLC): > 100 µM; TGI (HOP-92 NSCLC): > 100 µM; GI50 (HT29 colon): > 100 µM; TGI (HT29 colon): > 100 µM; GI50 (NCI-H322M lung): > 100 µM; TGI (NCI-H322M lung): > 100 µM; GI50 (HS 578T breast): > 100 µM; TGI (HS 578T breast): > 100 µM
